# According to US10519504B2, “Methods for treatment of oncological disorders using epimetabolic shifters, multidimensional intracellular molecules, or environmental influencers” (Berg LLC, priority 2009, dated 2019):
# What was measured:
# Bcl-2 = assay: Western blot of building block components, Bcl-2; type: cell-based; conditions: for Bcl-2 (summary): oncogenic cells
# Description: (§1) Skmel-28 melanoma cells were cultured in DMEM/F12 supplemented with 5% Fetal Bovine Serum (FBS) and 1× final concentration of Antibiotics. The cells were grown to 85% confluency and treated with building block components for 3, 6, 12 and 24 hours. The cells were then pelleted and a Western blot analysis was performed. The test building block components included L-Phenylylalanine, DL-Phenylylalanine, D-Phenylylalanine, L-Tyrosine, DL-Tyrosine, D-Tyrosine, 4-Hydroxy-phenylpyruvate, phenylacetate, 3-methoxy-4-hydroxymandelate (vanillylmandelate or VMA), vanillic acid, 4-hydroxy-benzoate, pyridoxine, panthenol, mevalonic acid, Acetylglycine, Acetyl-CoA, Farnesyl, and 2,3-Dimethoxy-5-methyl-p-benzoquinone.
# (§2) In the Western Blot Analysis, the cells were pelleted in cold PBS, lysed, and the protein levels were quantified using a BCA protein assay. The whole cell lysate was loaded in a 4% loading 12% running Tris-HCl gel. The proteins were then transferred to a nitrocellulose paper then blocked with a 5% milk Tris-buffered solution for 1 hour. The proteins were then exposed to primary antibodies (Bcl-2 and Caspase-3) overnight. The nitrocellulose paper was then exposed to Pico Chemilluminescent for 5 min and the protein expression was recorded. After exposure, actin was quantified using the same method. Using ImageJ the levels of protein expression were quantified. A t-Test was used to analyze for statistical significance.
# Caspase-3 = assay: Western blot of building block components, Caspase-3; type: cell-based; conditions: for Caspase-3 expression: Skmel-28; for Caspase-3 expression (summary): oncogenic cells
# Description: as §1, §2
# cancer cells = conditions: cited from earlier work
# Melanoma cells = assay: Cell proliferation assay (cell count) of building block combinations; type: cell-based
# Description: This set of experiments used a cell proliferation assay to assess the effect of combining different building block molecules on cell proliferation.
# The first study examined the effect of combining 4-Hydroxy-Benzoate with Benzoquinone. Cells were incubated for 48 hours, after which a cell count was performed for the live cells. Each test group was compared to the control, and each combination groups were compared to Benzoquinone control. The compounds were statistically analyzed for the addition of Benzoquinone.
# Additional studies were performed testing additional molar ratios. For the first test 4-Hydroxybenzoic were tested at concentrations of 500 nM, 1 μM, and 50 μM. These concentrations were tested in combination with 2,3-Dimethoxy-5-methyl-p-benzoquinone (Benzo). The concentration of Benzo tested were 25 μM, 50 μM, and 100 μM. Melanoma cells were grown to 80% confluency and seeded in 6 well plates at a concentration of 40K cells per well. The cells were treated with CoQ10, 4-Hydroxybenzoate, Benzo, and a combination of 4-Hydroxybenzoate/Benzo.
# A T-test was performed with p<0.05 as statistically significant.
# [1] = test system: neonatal fibroblast cells; assay: Cell proliferation assay (coulter counter); type: cell-based; conditions: HB 500 nM, 5 μM, 25 μM, alone and with benzoquinone 25, 50, 100 μM; 24 hours
# Description: A cell proliferation assay was also performed on neonatal fibroblast cells. The concentrations of HB tested were 500 nM, 5 μM, and 25 μM. HB was also tested in combination with benzoquinone at a concentrations of 25 μM, 50 μM, and 100 μM. Melanoma cells were seeded at 40 k cells per well and were treated for 24 hours. The cells were trypsinized and quantified using a coulter counter.
# [2] = test system: induced pancreatic cancer; conditions: Group H: 5 mg/kg
# [3] = Skmel-28, all time points and concentrations tested (500 nM, 1 μM, 25 μM, 50 μM)
# [4] = all time points and concentrations tested (500 nM, 1 μM, 25 μM, 50 μM)
# [5] = Skmel-28, 24 hours, concentration not given
smiles,measurement,setting,value
CC(=O)SCCNC(=O)CCNC(=O)[C@H](O)C(C)(C)COP(=O)(O)OP(=O)(O)OC[C@H]1O[C@@H](n2cnc3c(N)ncnc32)[C@H](O)[C@@H]1OP(=O)(O)O [Acetyl-CoA],Bcl-2 expression,Bcl-2; [3],no significant observed reduction in Bcl-2
same,Caspase-3 expression,Caspase-3; [4],no significant observed reduction in Bcl-2 or increase in Caspase-3 expression
NC(Cc1ccc(O)cc1)C(=O)O (racemic) [DL-Tyrosine],Bcl-2 expression,"Bcl-2; Skmel-28, 1 μM and 15 μM, 12 hours",statistical decrease in Bcl-2 expression
same,Bcl-2 expression,"Bcl-2; Skmel-28, 5 μM, 24 hours",statistical decrease in Bcl-2 expression
same,Caspase-3 expression,"Caspase-3; 5 μM and 15 μM, 12 hours",increase in Caspase-3 expression
CC(=O)NCC(=O)O [Acetylglycine],Bcl-2 expression,"Bcl-2; Skmel-28, 5 μM and 25 μM, 12 hours",significant decrease in Bcl-2 expression
same,Bcl-2 expression,"Bcl-2; Skmel-28, 100 μM, 24 hour",significant decrease in Bcl-2
"C=C1/C(=C\C=C2/CCC[C@]3(C)[C@@H]([C@H](C)CCCC(C)(C)O)CC[C@@H]23)C[C@@H](O)C[C@@H]1O [Vitamin D3, 1α, 25-dihydroxyvitamin D3]",expression of BCL2 and BCL-XL,cancer cells; Deeb et al. 2007,"repressing the expression of the anti-apoptotic, pro-survival proteins BCL2 and BCL-XL"
same,"expression of pro-apoptotic proteins (BAX, BAK, BAD)",cancer cells; Deeb et al. 2007,inducing the expression of pro-apoptotic proteins
same,p21WAFI/CIPI gene transcription,cancer cells; Deeb et al. 2007,induce gene transcription of the cyclin-dependent kinase inhibitor p21WAFI/CIPI
same,expression of VEGF,"cancer cells; Masuda and Jones, 2006",inhibit the expression of vascular endothelial growth factor (VEGF)
same,proliferation of tumor-derived endothelial cells,"cancer cells; Masuda and Jones, 2006",inhibit the proliferation of some tumor-derived endothelial cells
"COc1cc(C(O)C(=O)O)ccc1O (stereo not drawn) [VMA, 3-methoxy-4-hydroxymandelate]","Bcl-2 expression, trend","Bcl-2; Skmel-28, 100 nM to 100 μM",downward trend of Bcl-2 expression
same,"apoptotic effect (Bcl-2, Caspase-3)","Bcl-2; Skmel-28, 100 nM to 100 μM",no statistically significant apoptotic effect
"O=C(O)c1ccc(O)cc1 [4-Hydroxybenzoate, 4-hydroxy-benzoate]",Bcl-2 expression,"Bcl-2; Skmel-28, 15 μM, 24 hours",significant reduction in Bcl-2 expression
same,cell number vs control,Melanoma cells; 48 hours,significant decrease in cell number
same,cell proliferation,"Melanoma cells; HB 500 nM, 1 μM, 50 μM",significant decrease in cell proliferation
same,fibroblast cell number,[1],did not show a significant reduction in fibroblast cells
N[C@@H](Cc1ccc(O)cc1)C(=O)O [L-Tyrosine],Bcl-2 expression,"Bcl-2; Skmel-28, 5 μM, 24 hours",statistically significant decrease in Bcl-2
same,Bcl-2 expression,"Bcl-2; Skmel-28, 500 μM and 5 μM, 24 hours",statistically significant decrease in Bcl-2
same,Bcl-2 (summary),Bcl-2,significant reduction in Bcl-2
same,Caspase-3 expression,"Caspase-3; 500 nM, 12 hours",statistically significant increase in Caspase-3
same,Caspase-3 expression (summary),Caspase-3,increase in Caspase-3 expression
"C[C@@](O)(CCO)CC(=O)O [Mevalonic Acid, mevalonic acid]",Bcl-2 expression,Bcl-2; [3],no significant reduction in Bcl-2 expression
same,Caspase-3 expression,Caspase-3; [4],no significant reduction in Bcl-2 expression or an increase in Caspase-3 expression
N[C@@H](Cc1ccccc1)C(=O)O [L-Phenylalanine],Bcl-2 expression,"Bcl-2; Skmel-28, 5 μM, 6 hours",statistically significant decrease in Bcl-2
same,Bcl-2 expression,"Bcl-2; Skmel-28, 25 μM, 12 hours",statistically significant decrease in Bcl-2
same,Bcl-2 expression,"Bcl-2; Skmel-28, 100 μM, 3 hours and 12 hours",statistically significant decrease in Bcl-2
same,Bcl-2 expression compared to the control,"Bcl-2; Skmel-28, remaining time points, not statistically significant",constant trend for the decrease in Bcl-2
same,Bcl-2 (summary),Bcl-2,significant reduction in Bcl-2
same,Caspase-3 expression,"Caspase-3; 25 μM, 12 hours",statistically significant increase in Caspase-3
same,Caspase-3 expression (summary),Caspase-3,increase in Caspase-3 expression
N[C@H](Cc1ccc(O)cc1)C(=O)O [D-Tyrosine],Bcl-2 expression,"Bcl-2; Skmel-28, 5 μM and 15 μM, 12 and 24 hours",reduction in Bcl-2 expression
same,Caspase-3 expression,"Caspase-3; 1 μM, 12 and 24 hour",increase in Caspase-3 expression
same,Caspase-3 expression,"Caspase-3; 5 μM, 3, 12 and 24 time periods",significantly increased
same,Caspase-3 expression,"Caspase-3; 5 μM, 12 hour",increase in Caspase-3 expression
"COc1cccc2c1C(=O)c1c(O)c3c(c(O)c1C2=O)C[C@@](O)(C(=O)CO)C[C@@H]3O[C@H]1C[C@H](N)[C@H](O)[C@H](C)O1 [Doxorubicin, reference compound]",survival after 28 days,[2],a significant number of the animals in Group H had died due to the toxicity of Doxorubicin
O=C(O)C(=O)Cc1ccc(O)cc1 [4-Hydroxy-phenylpyruvate],Bcl-2 expression,"Bcl-2; Skmel-28, 5 μM and 15 μM, 24 hours",significant reduction in Bcl-2 expression
same,Bcl-2 (summary),Bcl-2,significant reduction in Bcl-2
same,Caspase-3 expression,"Caspase-3; 5 μM and 15 μM, 12 hours",significant increase in Caspase-3 expression
same,Caspase-3 expression (summary),Caspase-3,increase in Caspase-3 expression
NC(Cc1ccccc1)C(=O)O (racemic) [DL-Phenylalanine],Bcl-2 expression,Bcl-2; [5],statistically significant decrease in Bcl-2
same,Caspase-3 expression,"Caspase-3; 3 hours, concentration not given",statistically significant increase in Caspase-3
"Cc1ncc(CO)c(CO)c1O [Pyridoxine, pyridoxine]",Bcl-2 expression,Bcl-2; [5],significant reduction in Bcl-2
"COc1cc(C(=O)O)ccc1O [Vanillic Acid, vanillic acid]",Bcl-2 expression,"Bcl-2; Skmel-28, 500 nM and 5 μM, 24 hour",significantly reduce Bcl-2 expression
same,Bcl-2 expression,"Bcl-2; Skmel-28, 15 μM, 3 hours",reduction in Bcl-2 expression
same,Caspase-3 expression,"Caspase-3; 15 μM, 24 hours",significant increase in Caspase-3 expression
"CC(C)(CO)[C@@H](O)C(=O)NCCCO [Panthenol, panthenol]",Bcl-2 expression,"Bcl-2; melanoma cells, 25 μM",significant reduction in Bcl-2 expression
N[C@H](Cc1ccccc1)C(=O)O [D-Phenylalanine],Bcl-2 expression,"Bcl-2; Skmel-28, 5 μM and 25 μM, 3 hours",significant reduction
same,Bcl-2 expression,"Bcl-2; Skmel-28, 5 μM, 25 μM and 100 μM, 6 hours",significant reduction in Bcl-2 expression
same,Caspase-3 expression,"Caspase-3; 5 μM and 100 μM, 6 hours",significant increase in Caspase-3 expression
